Measured values: publication PMC11079024, “Identification of a family of species-selective complex I inhibitors as potential anthelmintics” (Nature Communications, 2024)
“And” between values parts separate entries of the source, which are not always exact repeats. Equal values may be shown once. Read-outs that look alike come from different tables or passages of the source.

Target: C. elegans (N2) complex I (NADH:ubiquinone oxidoreductase) (Caenorhabditis elegans, UniProt P24887+Q93873+Q94360)
Test: biochemical
Format: biochemical
Summary of the method: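 Complex I rate: initial linear slope of A600 over 15 min, expressed as percent of solvent control. Triple freeze-thawed mitochondria (0.2 mg/mL) in KPi pH 7.5, BSA 3 mg/mL, NADH 80 μM, decylubiquinone 60 μM, DCIP 160 μM, antimycin A, KCN.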

Chain of C. elegans (N2) complex I (NADH:ubiquinone oxidoreductase) (Q94360 17-199): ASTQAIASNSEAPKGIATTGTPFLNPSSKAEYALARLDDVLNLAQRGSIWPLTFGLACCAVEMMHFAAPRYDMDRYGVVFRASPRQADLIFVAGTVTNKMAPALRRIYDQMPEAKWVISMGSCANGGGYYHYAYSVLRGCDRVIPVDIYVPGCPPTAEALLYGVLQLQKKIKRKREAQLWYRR
Chain of C. elegans (N2) complex I (NADH:ubiquinone oxidoreductase) (P24887 whole entry): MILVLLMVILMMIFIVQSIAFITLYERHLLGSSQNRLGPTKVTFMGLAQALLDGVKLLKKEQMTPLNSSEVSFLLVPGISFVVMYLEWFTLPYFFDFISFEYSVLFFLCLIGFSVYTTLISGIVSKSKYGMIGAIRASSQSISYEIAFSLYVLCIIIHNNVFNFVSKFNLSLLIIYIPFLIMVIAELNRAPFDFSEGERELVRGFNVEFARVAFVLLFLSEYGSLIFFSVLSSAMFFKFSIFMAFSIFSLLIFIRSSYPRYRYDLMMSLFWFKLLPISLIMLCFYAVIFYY
Chain of C. elegans (N2) complex I (NADH:ubiquinone oxidoreductase) (Q93873 31-482): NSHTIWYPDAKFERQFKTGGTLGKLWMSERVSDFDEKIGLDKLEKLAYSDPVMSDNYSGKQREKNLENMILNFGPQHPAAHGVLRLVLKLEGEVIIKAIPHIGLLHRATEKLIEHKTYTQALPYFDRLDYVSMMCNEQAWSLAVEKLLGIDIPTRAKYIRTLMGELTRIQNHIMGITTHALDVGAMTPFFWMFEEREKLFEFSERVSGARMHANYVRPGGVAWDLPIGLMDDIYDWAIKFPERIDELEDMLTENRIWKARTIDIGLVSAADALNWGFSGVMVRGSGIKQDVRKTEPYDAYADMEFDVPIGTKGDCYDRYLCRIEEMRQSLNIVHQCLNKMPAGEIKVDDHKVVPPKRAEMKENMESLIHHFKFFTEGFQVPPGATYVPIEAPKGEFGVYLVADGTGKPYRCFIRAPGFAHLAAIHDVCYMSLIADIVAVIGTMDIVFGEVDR

Compound: COC(=O)Nc1nc2ccc(Sc3ccccc3)cc2[nH]1 [fenbendazole, reference compound]
- remaining activity at 0.125 µM (0.125 µM, wild-type C. elegans mitochondria, mean of replicates, read-out: percent (%) in vitro complex I activity relative to solvent control): 103%
- percent (%) in vitro complex I activity relative to solvent control (0.125 µM, wild-type C. elegans mitochondria, single replicate): 106.082% and 99.397%
- remaining activity at 0.125 µM (0.125 µM, wild-type C. elegans mitochondria, single replicate, read-out: percent (%) in vitro complex I activity relative to solvent control): 102%
- remaining activity at 0.313 µM (0.313 µM, wild-type C. elegans mitochondria, mean of replicates, read-out: percent (%) in vitro complex I activity relative to solvent control): 101%
- percent (%) in vitro complex I activity relative to solvent control (0.313 µM, wild-type C. elegans mitochondria, single replicate): 105.067% and 102.773%
- remaining activity at 0.313 µM (0.313 µM, wild-type C. elegans mitochondria, single replicate, read-out: percent (%) in vitro complex I activity relative to solvent control): 101%
- remaining activity at 0.625 µM (0.625 µM, wild-type C. elegans mitochondria, mean of replicates, read-out: percent (%) in vitro complex I activity relative to solvent control): 101%
- percent (%) in vitro complex I activity relative to solvent control (0.625 µM, wild-type C. elegans mitochondria, single replicate): 108.826% and 84.037% and 107.828% and 101.922%
- remaining activity at 1.5 µM (1.5 µM, wild-type C. elegans mitochondria, mean of replicates, read-out: percent (%) in vitro complex I activity relative to solvent control): 101%
- percent (%) in vitro complex I activity relative to solvent control (1.5 µM, wild-type C. elegans mitochondria, single replicate): 107.818% and 102.911% and 106.921% and 84.834%
- remaining activity at 3 µM (3 µM, wild-type C. elegans mitochondria, mean of replicates, read-out: percent (%) in vitro complex I activity relative to solvent control): 108%
- percent (%) in vitro complex I activity relative to solvent control (3 µM, wild-type C. elegans mitochondria, single replicate): 108.394% and 103.450%
- remaining activity at 3 µM (3 µM, wild-type C. elegans mitochondria, single replicate, read-out: percent (%) in vitro complex I activity relative to solvent control): 111%
- remaining activity at 15 µM (15 µM, wild-type C. elegans mitochondria, mean of replicates, read-out: percent (%) in vitro complex I activity relative to solvent control): 103%
- percent (%) in vitro complex I activity relative to solvent control (15 µM, wild-type C. elegans mitochondria, single replicate): 105.414% and 100.145%
- remaining activity at 15 µM (15 µM, wild-type C. elegans mitochondria, single replicate, read-out: percent (%) in vitro complex I activity relative to solvent control): 104%
- remaining activity at 37.5 µM (37.5 µM, wild-type C. elegans mitochondria, mean of replicates, read-out: percent (%) in vitro complex I activity relative to solvent control): 106%
- percent (%) in vitro complex I activity relative to solvent control (37.5 µM, wild-type C. elegans mitochondria, single replicate): 108.185% and 102.298%
- remaining activity at 37.5 µM (37.5 µM, wild-type C. elegans mitochondria, single replicate, read-out: percent (%) in vitro complex I activity relative to solvent control): 112%
- remaining activity at 75 µM (75 µM, wild-type C. elegans mitochondria, mean of replicates, read-out: percent (%) in vitro complex I activity relative to solvent control): 99.7%
- percent (%) in vitro complex I activity relative to solvent control (75 µM, wild-type C. elegans mitochondria, single replicate): 105.576% and 98.309%
- remaining activity at 75 µM (75 µM, wild-type C. elegans mitochondria, single replicate, read-out: percent (%) in vitro complex I activity relative to solvent control): 98.1%
- remaining activity at 0.0001 µM (dose 0.0001 µM, wild-type C. elegans, mean of replicates, read-out: in vitro complex I activity relative to solvent control, Mean): 92.7%
- in vitro complex I activity relative to solvent control, individual replicate (dose 0.0001 µM, wild-type C. elegans, single replicate): 89.632% and 90.262%
- remaining activity at 0.0001 µM (dose 0.0001 µM, wild-type C. elegans, single replicate, read-out: in vitro complex I activity relative to solvent control, individual replicate): 94.2%
- remaining activity at 0.0005 µM (dose 0.0005 µM, wild-type C. elegans, mean of replicates, read-out: in vitro complex I activity relative to solvent control, Mean): 102%
- in vitro complex I activity relative to solvent control, individual replicate (dose 0.0005 µM, wild-type C. elegans, single replicate): 109.063% and 93.803% and 100.567%
- remaining activity at 0.0005 µM (dose 0.0005 µM, wild-type C. elegans, single replicate, read-out: in vitro complex I activity relative to solvent control, individual replicate): 104%
- remaining activity at 0.001 µM (dose 0.001 µM, wild-type C. elegans, mean of replicates, read-out: in vitro complex I activity relative to solvent control, Mean): 107%
- in vitro complex I activity relative to solvent control, individual replicate (dose 0.001 µM, wild-type C. elegans, single replicate): 112.362% and 106.090% and 103.456%
- remaining activity at 0.001 µM (dose 0.001 µM, wild-type C. elegans, single replicate, read-out: in vitro complex I activity relative to solvent control, individual replicate): 107%
- remaining activity at 0.0025 µM (dose 0.0025 µM, wild-type C. elegans, mean of replicates, read-out: in vitro complex I activity relative to solvent control, Mean): 106%
- in vitro complex I activity relative to solvent control, individual replicate (dose 0.0025 µM, wild-type C. elegans, single replicate): 111.626% and 103.191% and 101.180%
- remaining activity at 0.0025 µM (dose 0.0025 µM, wild-type C. elegans, single replicate, read-out: in vitro complex I activity relative to solvent control, individual replicate): 107%
- remaining activity at 0.005 µM (dose 0.005 µM, wild-type C. elegans, mean of replicates, read-out: in vitro complex I activity relative to solvent control, Mean): 106%
- in vitro complex I activity relative to solvent control, individual replicate (dose 0.005 µM, wild-type C. elegans, single replicate): 110.787% and 104.169% and 105.146%
- remaining activity at 0.005 µM (dose 0.005 µM, wild-type C. elegans, single replicate, read-out: in vitro complex I activity relative to solvent control, individual replicate): 104%
- remaining activity at 0.013 µM (dose 0.013 µM, wild-type C. elegans, mean of replicates, read-out: in vitro complex I activity relative to solvent control, Mean): 105%
- in vitro complex I activity relative to solvent control, individual replicate (dose 0.013 µM, wild-type C. elegans, single replicate): 109.484% and 102.444% and 103.368%
- remaining activity at 0.013 µM (dose 0.013 µM, wild-type C. elegans, single replicate, read-out: in vitro complex I activity relative to solvent control, individual replicate): 105%
- remaining activity at 0.025 µM (dose 0.025 µM, wild-type C. elegans, mean of replicates, read-out: in vitro complex I activity relative to solvent control, Mean): 108%
- in vitro complex I activity relative to solvent control, individual replicate (dose 0.025 µM, wild-type C. elegans, single replicate): 112.068% and 112.677% and 102.223%
- remaining activity at 0.025 µM (dose 0.025 µM, wild-type C. elegans, single replicate, read-out: in vitro complex I activity relative to solvent control, individual replicate): 106%
- remaining activity at 0.063 µM (dose 0.063 µM, wild-type C. elegans, mean of replicates, read-out: in vitro complex I activity relative to solvent control, Mean): 102%
- in vitro complex I activity relative to solvent control, individual replicate (dose 0.063 µM, wild-type C. elegans, single replicate): 106.376% and 104.996% and 99.618%
- remaining activity at 0.063 µM (dose 0.063 µM, wild-type C. elegans, single replicate, read-out: in vitro complex I activity relative to solvent control, individual replicate): 98%
- remaining activity at 0.125 µM (dose 0.125 µM, wild-type C. elegans, mean of replicates, read-out: in vitro complex I activity relative to solvent control, Mean): 103%
- in vitro complex I activity relative to solvent control, individual replicate (dose 0.125 µM, wild-type C. elegans, single replicate): 106.082% and 99.397%
- remaining activity at 0.125 µM (dose 0.125 µM, wild-type C. elegans, single replicate, read-out: in vitro complex I activity relative to solvent control, individual replicate): 104%
- remaining activity at 0.313 µM (dose 0.313 µM, wild-type C. elegans, mean of replicates, read-out: in vitro complex I activity relative to solvent control, Mean): 101%
- in vitro complex I activity relative to solvent control, individual replicate (dose 0.313 µM, wild-type C. elegans, single replicate): 105.067% and 102.773%
- remaining activity at 0.313 µM (dose 0.313 µM, wild-type C. elegans, single replicate, read-out: in vitro complex I activity relative to solvent control, individual replicate): 96.6%
- remaining activity at 0.625 µM (dose 0.625 µM, wild-type C. elegans, mean of replicates, read-out: in vitro complex I activity relative to solvent control, Mean): 101%
- in vitro complex I activity relative to solvent control, individual replicate (dose 0.625 µM, wild-type C. elegans, single replicate): 84.037% and 107.828% and 101.922% and 108.826%
- remaining activity at 1.5 µM (dose 1.5 µM, wild-type C. elegans, mean of replicates, read-out: in vitro complex I activity relative to solvent control, Mean): 101%
- in vitro complex I activity relative to solvent control, individual replicate (dose 1.5 µM, wild-type C. elegans, single replicate): 102.911% and 106.921% and 84.834% and 107.818%
- remaining activity at 3 µM (dose 3 µM, wild-type C. elegans, mean of replicates, read-out: in vitro complex I activity relative to solvent control, Mean): 108%
- in vitro complex I activity relative to solvent control, individual replicate (dose 3 µM, wild-type C. elegans, single replicate): 108.394% and 103.450%
- remaining activity at 3 µM (dose 3 µM, wild-type C. elegans, single replicate, read-out: in vitro complex I activity relative to solvent control, individual replicate): 107%
- remaining activity at 15 µM (dose 15 µM, wild-type C. elegans, mean of replicates, read-out: in vitro complex I activity relative to solvent control, Mean): 103%
- in vitro complex I activity relative to solvent control, individual replicate (dose 15 µM, wild-type C. elegans, single replicate): 105.414% and 100.145%
- remaining activity at 15 µM (dose 15 µM, wild-type C. elegans, single replicate, read-out: in vitro complex I activity relative to solvent control, individual replicate): 101%
- remaining activity at 37.5 µM (dose 37.5 µM, wild-type C. elegans, mean of replicates, read-out: in vitro complex I activity relative to solvent control, Mean): 106%
- in vitro complex I activity relative to solvent control, individual replicate (dose 37.5 µM, wild-type C. elegans, single replicate): 108.185% and 102.298%
- remaining activity at 37.5 µM (dose 37.5 µM, wild-type C. elegans, single replicate, read-out: in vitro complex I activity relative to solvent control, individual replicate): 103%
- remaining activity at 75 µM (dose 75 µM, wild-type C. elegans, mean of replicates, read-out: in vitro complex I activity relative to solvent control, Mean): 99.7%
- in vitro complex I activity relative to solvent control, individual replicate (dose 75 µM, wild-type C. elegans, single replicate): 105.576% and 98.309%
- remaining activity at 75 µM (dose 75 µM, wild-type C. elegans, single replicate, read-out: in vitro complex I activity relative to solvent control, individual replicate): 96.8%
